Experiments:
[1] = tested on: SJ-G2; assay: MTT cell growth inhibition: SJ-G2; format: cell-based; settings: SJ-G2 glioblastoma, 72 h; for inhibition at 25 µM: read-out: Percentage (%) Cell Growth Inhibition in response to 25 µM of Drug
Procedure: All test agents were prepared as stock solutions (20 mM) in dimethyl sulfoxide (DMSO) and stored at −20 °C. Cell lines used in the study included HT29 (colorectal carcinoma); U87, SJ-G2, (glioblastoma); MCF-7, (breast carcinoma); A2780 (ovarian carcinoma); H460 (lung carcinoma); A431 (skin carcinoma); Du145 (prostate carcinoma); BE2-C (neuroblastoma); MiaPaCa-2 (pancreatic carcinoma); and SMA560 (spontaneous murine astrocytoma), together with the one non-tumour-derived normal breast cell line (MCF10A). All cell lines were incubated in a humidified atmosphere 5% CO2 at 37 °C. The cancer cell lines were maintained in Dulbecco’s modified Eagle’s medium (DMEM; Sigma, Australia) supplemented with foetal bovine serum (10%), sodium pyruvate (10 mM), penicillin (100 IUmL^−1), streptomycin (100 µg mL^−1) and L-glutamine (2 mM).
Growth inhibition was determined by plating cells in duplicate in medium (100 µL) at a density of 2500–4000 cells per well in 96-well plates. On day 0 (24 h after plating), when the cells were in logarithmic growth, medium (100 µL) with or without the test agent was added to each well. After 72 h drug exposure, growth inhibitory effects were evaluated using the MTT (3-(4,5-dimethyltiazol-2-yl)-2,5-diphenyltetrazolium bromide) assay and absorbance read at 540 nm. The percentage growth inhibition was calculated at a fixed concentration of 25 µM, based on the difference between the optical density values on day 0 and those at the end of drug exposure. Each data point is the mean ± the standard error of the mean (SEM) calculated from three replicates which were performed on separate occasions and separate cell line passages.

[2] = tested on: bovine liver β-galactosidase; assay: Glycosidase inhibition, laboratory 1: bovine liver β-galactosidase; format: biochemical; settings: methanol
Source text: (§1) The enzymes α-glucosidase (from yeast), β-glucosidases (from almond and bovine liver), α-galactosidase (from coffee beans), β-galactosidase (from bovine liver), α-mannosidase (from Jack bean), β-mannosidase (from snail), α-L-rhamnosidase (from Penicillium decumbens), α-L-fucosidase (from bovine kidney), trehalase (from porcine kidney), β-glucuronidases (from E. coli and bovine liver), amyloglucosidase (from A. niger), para-nitrophenyl glycosides, and various disaccharides were purchased from Sigma-Aldrich Co (St Louis, MO, USA).
(§2) Brush border membranes were prepared from the rat small intestine according to the method of Kessler et al. and were assayed at pH 6.8 for rat intestinal maltase using maltose. For rat intestinal maltase, porcine kidney trehalase, and A. niger amyloglucosidase activities, the reaction mixture contained 25 mM maltose and the appropriate amount of enzyme, and the incubations were performed for 10–30 min at 37 °C. The reaction was stopped by heating at 100 °C for 3 min. After centrifugation (600× g; 10 min), the resulting reaction mixture was added to the Glucose CII-test Wako (Wako Pure Chemical Ind., Osaka, Japan). The absorbance at 505 nm was measured to determine the amount of the released D-glucose. Other glycosidase activities were determined using an appropriate para-nitrophenyl glycoside as substrate at the optimum pH of each enzyme. The reaction mixture contained 2 mM of the substrate and the appropriate amount of enzyme. The reaction was stopped by addition of 400 mM Na2CO3. The released para-nitrophenol was measured spectrometrically at 400 nm. All reactions run in methanol.

[3] = tested on: porcine kidney trehalase; assay: Glycosidase inhibition, laboratory 1: trehalase; format: biochemical; settings: methanol
Source text: as §1, §2

[4] = target: T1, yeast α-glucosidase (Saccharomyces cerevisiae, UniProt P53341); assay: Glycosidase inhibition, laboratory 1: yeast α-glucosidase; format: biochemical; settings: methanol
T1 construct: purchased Sigma
T1 sequence (P53341 whole entry): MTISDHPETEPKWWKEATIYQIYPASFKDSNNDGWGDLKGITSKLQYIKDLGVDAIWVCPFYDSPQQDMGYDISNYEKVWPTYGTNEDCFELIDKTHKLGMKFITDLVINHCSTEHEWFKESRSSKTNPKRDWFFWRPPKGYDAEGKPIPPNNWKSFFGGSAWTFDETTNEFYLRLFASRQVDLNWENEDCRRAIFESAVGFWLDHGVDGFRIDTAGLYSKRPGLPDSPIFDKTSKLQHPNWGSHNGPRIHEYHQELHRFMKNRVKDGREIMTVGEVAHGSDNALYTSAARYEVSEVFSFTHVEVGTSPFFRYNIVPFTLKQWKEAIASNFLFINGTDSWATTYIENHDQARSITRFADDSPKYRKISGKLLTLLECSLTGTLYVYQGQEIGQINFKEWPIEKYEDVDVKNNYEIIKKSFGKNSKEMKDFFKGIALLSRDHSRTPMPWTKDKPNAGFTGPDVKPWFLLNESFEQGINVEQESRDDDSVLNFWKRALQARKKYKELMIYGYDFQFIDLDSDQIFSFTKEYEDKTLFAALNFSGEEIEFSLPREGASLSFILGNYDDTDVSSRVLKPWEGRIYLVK
Source text: as §1, §2

[5] = target: T2, Jack bean α-mannosidase (Canavalia ensiformis, UniProt C0HJB3); assay: Glycosidase inhibition, laboratory 2: Jack bean α-mannosidase; format: biochemical; settings: for % inhibition at ~400 μM: water; for inhibition at 400 µM: read-out: % inhibition at ~400 μM, water
T2 construct: purchased Sigma-Aldrich Co
T2 sequence (C0HJB3 1-981): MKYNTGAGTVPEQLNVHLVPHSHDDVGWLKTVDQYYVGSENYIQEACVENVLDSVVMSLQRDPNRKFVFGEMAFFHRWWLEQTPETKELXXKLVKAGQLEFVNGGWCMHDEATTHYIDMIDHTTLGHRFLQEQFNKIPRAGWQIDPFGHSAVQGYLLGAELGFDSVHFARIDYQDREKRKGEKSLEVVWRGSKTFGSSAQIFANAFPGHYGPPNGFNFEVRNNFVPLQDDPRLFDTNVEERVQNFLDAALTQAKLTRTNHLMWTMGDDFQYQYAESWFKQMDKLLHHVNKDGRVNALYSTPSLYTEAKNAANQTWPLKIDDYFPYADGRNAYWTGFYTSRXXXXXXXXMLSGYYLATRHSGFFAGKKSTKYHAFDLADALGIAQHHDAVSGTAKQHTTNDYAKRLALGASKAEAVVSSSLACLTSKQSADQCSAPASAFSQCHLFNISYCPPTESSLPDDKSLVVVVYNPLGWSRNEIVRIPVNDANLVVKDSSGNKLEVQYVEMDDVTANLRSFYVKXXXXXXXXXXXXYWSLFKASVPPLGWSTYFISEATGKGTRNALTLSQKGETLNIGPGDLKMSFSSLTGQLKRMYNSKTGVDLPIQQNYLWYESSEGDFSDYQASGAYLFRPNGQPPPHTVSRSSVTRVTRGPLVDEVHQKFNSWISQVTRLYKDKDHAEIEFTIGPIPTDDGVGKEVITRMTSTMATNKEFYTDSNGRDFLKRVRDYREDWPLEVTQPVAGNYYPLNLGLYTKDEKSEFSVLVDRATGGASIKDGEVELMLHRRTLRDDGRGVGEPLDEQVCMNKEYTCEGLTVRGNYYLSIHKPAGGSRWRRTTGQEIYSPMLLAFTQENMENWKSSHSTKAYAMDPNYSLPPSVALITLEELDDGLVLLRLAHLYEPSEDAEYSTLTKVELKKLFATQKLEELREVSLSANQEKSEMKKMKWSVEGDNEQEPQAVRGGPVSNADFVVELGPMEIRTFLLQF
Procedure: (§3) All enzymes and para-nitrophenyl substrates were purchased from Sigma. Enzymes were assayed at 27 °C in 0.1 M citric acid/0.2 M disodium hydrogen phosphate buffers at the optimum pH for the enzyme. The incubation mixture consisted of 10 μL enzyme solution, 10 μL of 1 mg/mL aqueous solution of extract and 50 μL of the appropriate 5 mM para-nitrophenyl substrate made up in buffer at the optimum pH for the enzyme. The reactions were stopped by addition of 70 μL 0.4 M glycine (pH 10.4) during the exponential phase of the reaction, which had been determined at the beginning using uninhibited assays in which water replaced inhibitor. Final absorbances were read at 405 nm using a Versamax microplate reader (Molecular Devices). Assays were carried out in triplicate, and the values given are means of the three replicates per assay. All reactions run in water.

[6] = target: T1, yeast α-glucosidase; assay: Glycosidase inhibition, laboratory 2: yeast α-glucosidase; format: biochemical; settings: for % inhibition at ~400 μM: water; for inhibition at 400 µM: read-out: % inhibition at ~400 μM, water
Procedure: as §3

Compound | inhibition at 25 µM [1] [%] | inhibition % at 100 μM [3] | inhibition at 400 µM [5] [%] | inhibition at 400 µM [6] [%] | inhibition at 100 µM ([4]; 100 μM) [%] | IC50 [2] [µM] | further results
Borocaptate sodium [BSH, reference compound] |  |  |  |  |  |  | Percentage (%) Cell Growth Inhibition in response to 25 µM of Drug [1]: 3 ± 8%; inhibition % at 1000 μM ([2]; 1000 μM): ^aNI ^b (0%); inhibition % at 1000 μM ([3]; 1000 μM): ^aNI ^b (4.2%); inhibition % at 1000 μM ([4]; 1000 μM): ^aNI ^b(6.9%); % inhibition at ~400 μM [5]: −18.7%; % inhibition at ~400 μM [6]: 59%
N[C@@H](Cc1ccc(B(O)O)cc1)C(=O)O [BPA, 4-borono-L-phenylalanine, reference compound] | 5 ± 8 | ^cNI ^d (0%) | 0.6 | 2.9 |  |  | inhibition % at 100 μM [2]: ^cNI ^d (10.9%)
CC1(C)OB(c2ccccc2NC(=O)c2cc(Cl)c(Cl)c(Cl)c2Cl)OC1(C)C [ortho 5, 2,3,4,5-Tetrachloro-N-(2-(4,4,5,5-tetramethyl-1,3,2-dioxaborolan-2-yl)phenyl)benzamide] | 92 ± 5 |  | 0 | 17.3 |  |  | inhibition % at 10 μM [2]: ^cNI ^d (0%); inhibition % at 10 μM ([3]; 10 μM): ^cNI ^d (1.2%); inhibition at 10 µM [4]: 0%
CC1(C)OB(c2ccc(CN3C(=O)c4c(Cl)c(Cl)c(Cl)c(Cl)c4C3=O)cc2)OC1(C)C [para 3, 4,5,6,7-Tetrachloro-2-(4-(4,4,5,5-tetramethyl-1,3,2-dioxaborolan-2-yl)benzyl)isoindoline-1,3-dione] | > 100 | ^aNI ^b (0%) | 16.5 | 29.3 | 0 |  | 
N[C@@H](Cc1ccc(B(O)O)cc1)C(=O)O [^10B-BPA, reference compound] |  | ^cNI ^d (0%) |  |  |  |  | Percentage (%) Cell Growth Inhibition in response to 25 µM of Drug [1]: 5 ± 10%; inhibition % at 100 μM [2]: ^cNI ^d (0%); inhibition % at 100 μM ([4]; 100 μM): ^cNI ^d (0%); % inhibition at ~400 μM [5]: −0.7%; % inhibition at ~400 μM [6]: 3.4%
CC1(C)OB(c2cccc(CN3C(=O)c4c(Cl)c(Cl)c(Cl)c(Cl)c4C3=O)c2)OC1(C)C [meta 3, 4,5,6,7-Tetrachloro-2-(3-(4,4,5,5-tetramethyl-1,3,2-dioxaborolan-2-yl)benzyl)isoindoline-1,3-dione] | 35 ± 4 | ^aNI ^b (0%) | 30.3 | 32.2 |  |  | inhibition % at 10 μM [2]: ^cNI ^d (12.4%); inhibition at 10 µM [4]: 0%
CC1(C)OB(c2ccccc2CNC(=O)c2cc(Cl)c(Cl)c(Cl)c2Cl)OC1(C)C [ortho 8, 2,3,4,5-tetrachloro-N-(2-(4,4,5,5-tetramethyl-1,3,2-dioxaborolan-2-yl)benzyl)benzamide] | < 0 | ^aNI ^b (16.8%) | -6.1 | 68.9 | 0 | 278 | 
CC1(C)OB(c2cccc(NC(=O)c3cc(Cl)c(Cl)c(Cl)c3Cl)c2)OC1(C)C [meta 5, 2,3,4,5-tetrachloro-N-(3-(4,4,5,5-tetramethyl-1,3,2-dioxaborolan-2-yl)phenyl)benzamide] | < 0 | ^aNI ^b (0%) | 2.2 | 82.8 | 12.8 | 213 | 
CC1(C)OB(c2ccc(NC(=O)c3cc(Cl)c(Cl)c(Cl)c3Cl)cc2)OC1(C)C [para 5, 2,3,4,5-tetrachloro-N-(4-(4,4,5,5-tetramethyl-1,3,2-dioxaborolan-2-yl)phenyl)benzamide] | 28 ± 6 | ^aNI ^b (0%) | -8.2 | 38.4 | 0 | 333 | 

From paper PMC9182199, “Borylated 2,3,4,5-Tetrachlorophthalimide and Their 2,3,4,5-Tetrachlorobenzamide Analogues: Synthesis, Their Glycosidase Inhibition and Anticancer Properties in View to Boron Neutron Capture Therapy” (Molecules, 2022)
